Assay results from paper PMC8593015 (Scientific Reports, 2021).
Values joined by “and” are separate entries in the source; they are usually repeats but may differ in a detail not shown here. Equal values may be shown once.

Experiments:
M. tb EgtD = target: T1, M. tb EgtD (Mycobacterium tuberculosis, UniProt P9WN47); assay: biochemical
T1 construct: thioredoxin (N, cleaved yes); polyhistidine (N, cleaved yes); made in house; host or cells: E. coli (T7 cells), pET32-derived vector
T1 sequence (P9WN47 1-321): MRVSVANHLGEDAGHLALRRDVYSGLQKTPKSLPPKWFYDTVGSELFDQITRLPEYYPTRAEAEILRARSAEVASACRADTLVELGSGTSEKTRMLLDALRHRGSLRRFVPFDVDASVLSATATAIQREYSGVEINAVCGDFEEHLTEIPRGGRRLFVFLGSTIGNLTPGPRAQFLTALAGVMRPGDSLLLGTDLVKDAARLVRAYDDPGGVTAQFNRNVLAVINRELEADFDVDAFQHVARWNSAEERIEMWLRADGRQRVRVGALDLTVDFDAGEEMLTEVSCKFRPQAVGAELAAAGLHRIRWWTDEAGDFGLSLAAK

M. tb = tested on: M. tb; design: method as in PMID 22100163, PMID 24586159, PMID 22988030; conditions: macrophage cells and infected mice; cited from earlier work
[1] = tested on: Mycobacterium marinum (M. marinum); conditions: cited from earlier work

SMILES	EC50 (M. tb EgtD)	also measured
CS(=O)(=O)c1ccc(-c2nc(-c3ccc(F)cc3)c(-c3ccncc3)[nH]2)cc1 [Cay-10571, reference compound]	< 20 µM and 7 µM	–
O=C(O)CNc1cccc(C(=O)NCCc2c[nH]cn2)c1 [HD1]	89 ± 19 µM	–
O=C(O)C(Cc1cnc[nH]1)n1cccc1 (centres unmarked) [HD2]	33 ± 3 µM	–
O=C(O)C(Cc1cnc[nH]1)NC(=S)NCc1ccccc1 (centres unmarked) [HD3]	47 ± 5 µM	–
CCOc1ccccc1CN(CC)C(=O)[C@H](N)Cc1c[nH]cn1 [HD4]	25 ± 4 µM	–
CN(Cc1ccc(Oc2ccccc2)cc1)C(=O)[C@H](N)Cc1c[nH]cn1 [HD5]	30 ± 3 µM	–
O=C(N[C@@H](Cc1c[nH]cn1)C(=O)O)C1CC=CC1 [HD6]	85 ± 19 µM	fold decrease in inhibitory activity versus HD2 and HD3 (M. tb EgtD; ratio of EC50 values): 1.5–2.5 fold
CN(C)CCN(Cc1cnc[nH]1)C(=O)CN(C)Cc1ccccc1 [HD7]	85 ± 12 µM	–
Cc1ccc(C(C)C(=O)N(CCN(C)C)Cc2cnc[nH]2)cc1 (centres unmarked) [HD8]	160 ± 60 µM	–
CCOc1ccccc1OCCN(C)Cc1cnc[nH]1 [HD9]	36 ± 4 µM	–
Cc1cccc(C(C(=O)NCCc2c[nH]cn2)N(C)C)c1 (centres unmarked) [HD10]	32 ± 4 µM	–
Cc1ccc(NC(=O)c2ccc(CN3CCN(C)CC3)cc2)cc1Nc1nccc(-c2cccnc2)n1 [Imatinib]	–	intracellular replication of M. tb (M. tb): decrease in the intracellular replication; effect of combination with Rifampicin ([1]; M. marinum-infected macrophage cells, Imatinib and Rifampicin): synergistic effect; intracellular replication of M. marinum ([1]; macrophage cells and infected mice): decrease in the intracellular replication
O=c1cc(N2CCOCC2)oc2c1ccc1ccccc12 [NU-7026, reference compound]	< 20 µM and 5.4 µM	–
Cc1cc(C(C)Nc2ccccc2)c2nc(N3CCOCC3)cc(=O)n2c1 (centres unmarked) [TGX-221, reference compound]	< 20 µM and 15.2 µM	–
